Laboratory results published in patent publication US9126941B2, “Treatment of hyperproliferative disorders with diarylhydantoin compounds” (The Regents of the University of California, priority 2005, dated 2015).
Like-named read-outs stand apart in the source and are kept apart here.

Columns and labels:
AR [1] = target: T1, AR (Homo sapiens, UniProt P10275); assay: cell-based; format: cell-based; conditions: for PSA levels of LN-AR cells (FIG. 21): doses of 100, 200, 500 and 1000 nM
Method: It is well established that PSA levels are indicators of AR activities in prostate cancer. […] The LNCaP-AR cells are a line of lymph node carcinoma of prostate cells transduced with a plasmid that makes express androgen receptors. […] After four days incubation, secreted PSA levels were assayed using PSA ELISA kits (American Qualex, San Clemente, Calif.)

AR [2] = target: T1, AR; assay: cell-based; format: cell-based; conditions: for Rank order, most active to least active, relative luciferase activity (FIG. 3): 500 nM; for IC50 (nM) Reporter: LNCaP-AR, 100 pM R1881, two days, No = did not inhibit AR response reporter
Method: The compounds were subjected to tests using an artificial AR response reporter system in a hormone refractory prostate cancer cell line. […] After two days of incubation, reporter activities were assayed.

T1 sequence (P10275 whole entry, looked up): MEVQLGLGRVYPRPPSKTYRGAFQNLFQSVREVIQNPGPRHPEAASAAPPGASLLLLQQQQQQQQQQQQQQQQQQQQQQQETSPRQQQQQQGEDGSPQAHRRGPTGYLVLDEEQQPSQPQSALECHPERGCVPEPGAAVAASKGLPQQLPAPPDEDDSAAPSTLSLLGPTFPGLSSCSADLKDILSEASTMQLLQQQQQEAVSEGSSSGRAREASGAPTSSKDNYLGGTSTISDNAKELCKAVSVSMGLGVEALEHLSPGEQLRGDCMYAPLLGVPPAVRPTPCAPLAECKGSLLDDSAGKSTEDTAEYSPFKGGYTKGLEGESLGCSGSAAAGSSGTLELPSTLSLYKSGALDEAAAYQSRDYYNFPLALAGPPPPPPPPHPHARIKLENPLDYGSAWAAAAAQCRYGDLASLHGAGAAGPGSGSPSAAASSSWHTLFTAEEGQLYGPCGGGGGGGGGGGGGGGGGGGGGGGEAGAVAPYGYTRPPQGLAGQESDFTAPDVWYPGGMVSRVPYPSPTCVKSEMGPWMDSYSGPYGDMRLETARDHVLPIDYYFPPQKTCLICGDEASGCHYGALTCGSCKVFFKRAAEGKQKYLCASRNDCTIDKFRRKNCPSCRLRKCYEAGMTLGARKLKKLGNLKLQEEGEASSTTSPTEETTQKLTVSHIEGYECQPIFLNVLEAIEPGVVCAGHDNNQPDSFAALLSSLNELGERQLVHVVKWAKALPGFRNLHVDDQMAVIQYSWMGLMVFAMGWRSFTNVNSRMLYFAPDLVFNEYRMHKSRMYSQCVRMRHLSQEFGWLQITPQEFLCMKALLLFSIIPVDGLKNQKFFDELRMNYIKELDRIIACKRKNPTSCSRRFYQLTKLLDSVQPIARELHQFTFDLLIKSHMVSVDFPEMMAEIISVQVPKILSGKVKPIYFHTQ

CNC(=O)c1ccc(N2C(=S)N(c3ccc(C#N)c(C(F)(F)F)c3)C(=O)C23CCCC3)cc1F [RD162″, 4-(3-(4-Cyano-3-(trifluoromethyl)phenyl)-4-oxo-2-thioxo-1,3-diazaspiro[4.4]nonan-1-yl)-2-fluoro-N-methylbenzamide]
PSA levels of LN-AR cells (FIG. 21) (AR [1]): decreased

CC1(C)C(=O)N(c2ccc(C#N)c(C(F)(F)F)c2)C(=S)N1c1ccccc1 [Example 6-2, 4-[3-phenyl-4,4-dimethyl-5-oxo-2-thioxoimidazolidin-1-yl]-2-trifluoromethylbenzonitrile]
IC50 (AR [2]): 149 nM

N#Cc1ccc(N2C(=O)C3(CCC3)N(c3ccc(O)cc3F)C2=S)cc1C(F)(F)F [RD163, 4-[5-(2-fluoro-4-hydroxyphenyl)-8-oxo-6-thioxo-5,7-diazaspiro[3.4]oct-7-yl]-2-trifluoromethylbenzonitrile]
Luciferase activity in LNCaP-AR cells (FIG. 3) (AR [2]): acted to reduce luciferase activity
Rank order, most active to least active, relative luciferase activity (FIG. 3) (AR [2]): RD152>RD153>RD145>RD163>RD161=RD162>bicalutamide

COC(=O)CCc1ccc(N2C(=S)N(c3ccc(C#N)c(C(F)(F)F)c3)C(=O)C23CCC3)cc1 [RD128, 3-{4-[7-(4-cyano-3-trifluoromethylphenyl)-8-oxo-6-thioxo-5,7-diazaspiro[3.4]oct-5-yl]-phenyl}-propionic acid methyl ester]
IC50 (nM) Reporter (AR [2]): No

Cc1cc(N2C(=S)N(c3ccc(C#N)c(C(F)(F)F)c3)C(=O)C23CCC3)[nH]n1 [RD84, 4-[5-(5-methyl-2H-pyrazol-3-yl)-8-oxo-6-thioxo-5,7-diaza-spiro[3.4]oct-7-yl]-2-trifluoromethyl-benzonitrile, reference compound]
IC50 (AR [2]): > 1000 nM

CNC(=O)c1ccc(N2C(=S)N(c3ccc(C#N)c(C(F)(F)F)c3)C(=O)C2(C)C)cc1 [RD153, 4-[3-(4-cyano-3-trifluoromethylphenyl)-5,5-dimethyl-4-oxo-2-thioxo-imidazolidin-1-yl]-N-methylbenzamide]
Luciferase activity in LNCaP-AR cells (FIG. 3) (AR [2]): acted to reduce luciferase activity
Rank order, most active to least active, relative luciferase activity (FIG. 3) (AR [2]): RD152>RD153>RD145>RD163>RD161=RD162>bicalutamide
Luciferase activity, LN/AR cell line (FIG. 29) (AR [2]; for a given concentration, 125 nmol to 1000 nmol): less than the luciferase activity upon exposure to RD155

CN(C)C(=O)CCCc1ccc(N2C(=S)N(c3ccc(C#N)c(C(F)(F)F)c3)C(=O)C23CCC3)cc1 [RD169, 4-(4-(7-(4-Cyano-3-(trifluoromethyl)phenyl)-8-oxo-6-thioxo-5,7-diazaspiro[3.4]octan-5-yl)phenyl)-N,N-dimethylbutanamide]
PSA levels of LN-AR cells (FIG. 21) (AR [1]): decreased

N#Cc1ccc(N2C(=O)C3(CCC3)N(c3ccc(-c4ccccc4)cc3)C2=S)cc1C(F)(F)F [RD57, 4-(8-oxo-6-thioxo-5-(4-biphenyl)-5,7-diazaspiro[3.4]oct-7-yl)-2-trifluoromethylbenzonitrile]
IC50 (AR [2]): 283 nM

Cc1ccnc(N2C(=S)N(c3ccc(C#N)c(C(F)(F)F)c3)C(=O)C2(C)C)c1 [RD83, 4-[4,4-dimethyl-3-(4-methylpyridin-2-yl)-5-oxo-2-thioxoimidazolidin-1-yl]-2-trifluoromethylbenzonitrile]
IC50 (AR [2]): 457 nM

COC(=O)CCCc1ccc(N2C(=S)N(c3ccc(C#N)c(C(F)(F)F)c3)C(=O)C23CCC3)cc1 [RD129, 4-{4-[7-(4-cyano-3-trifluoromethylphenyl)-8-oxo-6-thioxo-5,7-diazaspiro[3.4]oct-5-yl]-phenyl}-butyric acid methyl ester]
IC50 (AR [2]): 432 nM

CC1(C)C(=O)N(c2ccc(C#N)c(C(F)(F)F)c2)C(=S)N1c1ccccn1 [RD82, 4-[4,4-dimethyl-3-(4-pyridin-2-yl)-5-oxo-2-thioxoimidazolidin-1-yl]-2-trifluoromethylbenzonitrile]
IC50 (AR [2]): 723 nM

CC1(C)C(=O)N(c2ccc(C#N)c(C(F)(F)F)c2)C(=S)N1c1ccc(OC(=O)CCl)cc1 [RD13, Chloroacetic acid 4-[3-(4-cyano-3-trifluoromethylphenyl)-5,5-dimethyl-4-oxo-2-thioxoimidazolidin-1-yl]phenyl ester]
IC50 (AR [2]): 131 nM

Cc1ccc(N2C(=S)N(c3ccc(C#N)c(C(F)(F)F)c3)C(=O)C23CCN(C)CC3)cc1 [RD53, 4-(8-methyl-4-oxo-2-thioxo-1-(4-methylphenyl)-1,3,8-triazaspiro[4.5]dec-3-yl)-2-trifluoromethylbenzonitrile]
IC50 (AR [2]): 638 nM

CN1CCC2(CC1)NC(=S)N(c1ccc(C#N)c(C(F)(F)F)c1)C2=O [RD52, 4-(8-methyl-4-oxo-2-thioxo-1,3,8-triazaspiro[4.5]dec-3-yl)-2-trifluoromethylbenzonitrile, reference compound]
IC50 (nM) Reporter (AR [2]): No

N#CCCCc1ccc(N2C(=S)N(c3ccc(C#N)c(C(F)(F)F)c3)C(=O)C23CCC3)cc1 [RD170, 4-(5-(4-(3-Cyanopropyl)phenyl)-8-oxo-6-thioxo-5,7-diazaspiro[3.4]octan-7-yl)-2-(trifluoromethyl)benzonitrile]
PSA levels of LN-AR cells (FIG. 21) (AR [1]): decreased

Cc1ccc(N2C(=S)N(c3ccc(C#N)c(C(F)(F)F)c3)C(=O)C23CCCC3)cc1 [RD35, 4-(4-oxo-2-thioxo-1-(4-methylphenyl)-1,3-diazaspiro[4.4]non-3-yl)-2-trifluoromethylbenzonitrile]
IC50 (AR [2]): 147 nM

Cc1ccc(N2C(=S)N(c3ccc(C#N)c(C(F)(F)F)c3)C(=O)C23CCCCC3)cc1 [RD48, 4-(4-oxo-2-thioxo-1-(4-methylphenyl)-1,3-diazaspiro[4.5]dec-3-yl)-2-trifluoromethylbenzonitrile]
IC50 (AR [2]): 194 nM

N#Cc1ccc(N2C(=O)C3(CCC3)N(c3ccc(/C=C/C(N)=O)cc3)C2=S)cc1C(F)(F)F [RD119, 3-{4-[7-(4-Cyano-3-trifluoromethyl-phenyl)-8-oxo-6-thioxo-5,7-diaza-spiro[3.4]oct-5-yl]-phenyl}-acrylamide]
IC50 (AR [1]): 113 nM

N#Cc1ccc(N2C(=O)C3(CCCC3)N(c3ccc([N+](=O)[O-])cc3)C2=S)cc1C(F)(F)F [RD55, 4-[1-(4-nitrophenyl)-4-oxo-2-thioxo-1,3-diazaspiro[4.4]non-3-yl]-2-trifluoromethylbenzonitrile]
IC50 (AR [2]): 498 nM

COC(=O)c1ccc(N2C(=S)N(c3ccc(C#N)c(C(F)(F)F)c3)C(=O)C2(C)C)cc1 [RD152, 4-[3-(4-cyano-3-trifluoromethylphenyl)-5,5-dimethyl-4-oxo-2-thioxo-imidazolidin-1-yl]benzoic acid methyl ester]
Luciferase activity in LNCaP-AR cells (FIG. 3) (AR [2]): acted to reduce luciferase activity
Rank order, most active to least active, relative luciferase activity (FIG. 3) (AR [2]): RD152>RD153>RD145>RD163>RD161=RD162>bicalutamide

CC1(C)C(=O)N(c2ccc(C#N)c(C(F)(F)F)c2)C(=S)N1c1ccc(N)cc1 [RD9, 4-[3-(4-aminophenyl)-4,4-dimethyl-5-oxo-2-thioxoimidazolidin-1-yl]-2-trifluoromethylbenzonitrile]
IC50 (AR [2]): 273 nM

N#Cc1ccc(N2C(=O)C3(CCC3)N(c3ccc(O)cc3)C2=S)cc1C(F)(F)F [RD58, 4-(8-oxo-6-thioxo-5-(4-hydroxyphenyl)-5,7-diazaspiro[3.4]oct-7-yl)-2-trifluoromethylbenzonitrile]
IC50 (AR [2]): 162 nM

CS(=O)(=O)c1ccc(N2C(=S)N(c3ccc(C#N)c(C(F)(F)F)c3)C(=O)C23CCC3)cc1 [RD145, 4-[5-(4-methanesulfonylphenyl)-8-oxo-6-thioxo-5,7-diazaspiro[3.4]oct-7-yl]-2-trifluoromethylbenzonitrile]
Luciferase activity in LNCaP-AR cells (FIG. 3) (AR [2]): acted to reduce luciferase activity
Rank order, most active to least active, relative luciferase activity (FIG. 3) (AR [2]): RD152>RD153>RD145>RD163>RD161=RD162>bicalutamide
